Source: patent US5314932A, “Antifouling coating and method for using same” (priority 1993, dated 1994)

What was measured:
[1] = tested on: cyprid stage larvae; format: in vivo, acorn barnacle Balanus amphritrite Darwin; details: for Cyprid Settlement (ED50): dose which prevents settlement of 50 percent of cyprid stage larvae (EC50), three-day old cyprids, 100 kDa-filtered seawater (approx. 35 ppt), 28° C., approx. 15 h light and 9 h darkness; for EC50 compared with TBT, digoxigenin, and digoxin: cyprid stage larvae settlement, comparison in words
Protocol: (§1) Adult individuals of the acorn barnacle Balanus amphritrite Darwin were collected from the Duke University Marine Laboratory seawall in Beaufort, N.C. Collected specimens were crushed, and the nauplius stage larvae released therefrom were cultured to cyprid stage for cyprid-state assays according to the methods of Rittschof et al., J. Exp. Mar. Biol. Ecol. 82:131-146 (1984).
Settlement assays were performed as previously described by Rittschof et al., J. Chem. Ecol. 11:551-563 (1985). Three-day old cyprid larvae were added to Falcon 50×9 mm polystyrene petri dishes. Each dish contained 5 ml of 100 kDa-filtered seawater (approximately 35 ppt salinity). […] Doses were varied in an effort to determine inhibition levels. Dishes receiving no test compound served as negative controls. The number of replicate dishes used in each assay ranged from 2 to 4, depending on larval availability. The dishes were incubated at 28° C. under light for approximately 15 hours and in darkness for approximately 9 hours.
After incubation, the dishes were examined under a dissecting microscope to determine whether larvae were still alive. The larvae were then euthanized by the addition of several drops of 10 percent formalin. The numbers of attached and unattached larvae were then counted.
Settlement was calculated as the percentage of total larvae attached to the dish. Differences in the rate of settlement for test dishes versus controls were assessed for statistical significance through the use of a G test for independence described by Sokal et al., Biometry (Freeman & Co., San Francisco 1981).

[2] = tested on: nauplius stage larvae; assay: Toxicity Assay for Nauplius Larvae (naupliar toxicity); details: for Naupliar Toxicity (LD50): lethal dose killing 50 percent of naupliar stage larvae, 100 kDa-filtered seawater, 28° C., approx. 15 h light and 9 h darkness, 1440 min; for LD50 compared with TBT, digoxigenin, and digoxin: nauplius stage larvae, comparison with known antifouling agents
Protocol: as §1
Toxicity assays were conducted by adding nauplius stage larvae to Falcon 50×9 mm polystyrene Petri dishes containing 5 ml of 100 kDa-filteredseawater. Experimental dishes received a dose of bufalin, cinobufatalin, TBT, digoxigenin, or digoxin. Doses receiving no test compound served as negative controls. The dishes were incubated at 28° C. under light for approximately 15 hours and in darkness for approximately 9 hours.
After incubation, the dishes were examined under a dissecting microscope to determine whether the larvae were alive or dead. […] The number of dead and living larvae was counted and recorded.
Data for toxicity assays performed on nauplius stage larvae is summarized in Table 1, which lists the lethal dose for each compound required to kill 50 percent of naupliar stage larvae in a sample (LD50).

Row | SMILES | Cyprid Settlement (ED50) [1] | Naupliar Toxicity (LD50) [2] | EC50 compared with TBT, digoxigenin, and digoxin [1] | LD50 compared with TBT, digoxigenin, and digoxin [2]
1 | C[C@H]1O[C@@H](O[C@H]2[C@@H](O)C[C@H](O[C@H]3[C@@H](O)C[C@H](O[C@H]4CC[C@@]5(C)[C@H](CC[C@@H]6[C@@H]5C[C@@H](O)[C@]5(C)[C@@H](C7=CC(=O)OC7)CC[C@]65O)C4)O[C@@H]3C)O[C@@H]2C)C[C@H](O)[C@@H]1O [Digoxin, reference compound] | 6,300 ng/L | 5,450 ng/L |  | 
2 | C[C@]12CC[C@H](O)C[C@H]1CC[C@@H]1[C@@H]2CC[C@]2(C)[C@@H](c3ccc(=O)oc3)CC[C@]12O [Bufalin, 3,14-dihydroxybufa-20,22 dienolide] | 19 ng/L | 27 ng/L | much lower EC50 values than TBT, digoxigenin, and digoxin | much lower LD50 values than known antifouling agents TBT, digoxigenin, and digoxin
3 | CCC[CH2][Sn]([Cl])([CH2]CCC)[CH2]CCC [TBT Chloride, tri-n-butyl tin chloride, reference compound] |  | ~3,400 ng/L |  | 
4 | CC(=O)O[C@H]1[C@H]2O[C@]23[C@@H]2CC[C@]4(O)C[C@@H](O)CC[C@]4(C)[C@H]2CC[C@]3(C)[C@H]1c1ccc(=O)oc1 [Cinobufotalin, 16-(acetyloxy)-14,15-epoxy-3,5dihydroxybufa-20,22-enolide] | 2,600 ng/L | 837 ng/L | much lower EC50 values than TBT, digoxigenin, and digoxin | much lower LD50 values than known antifouling agents TBT, digoxigenin, and digoxin
5 | C[C@]12CC[C@H](O)C[C@H]1CC[C@@H]1[C@@H]2C[C@@H](O)[C@]2(C)[C@@H](C3=CC(=O)OC3)CC[C@]12O [Digoxigenin, reference compound] | > 50,000 ng/L | 3,720 ng/L |  | 
6 | CC(=O)O[C@H]1[C@H]2O[C@]23[C@@H]2CC[C@@H]4C[C@@H](O)CC[C@]4(C)[C@H]2CC[C@]3(C)[C@H]1c1ccc(=O)oc1 [Cinobufagin, 16-(acetyloxy)-14,15-epoxy-3 hydroxybufa-20,22-enolide] | 162 ng/L | 37 ng/L | much lower EC50 values than TBT, digoxigenin, and digoxin | much lower LD50 values than known antifouling agents TBT, digoxigenin, and digoxin
